Assay results published in a melting point compilation (Tetko et al.).

SMILES | melting point [°C]
COc1cc([N+](=O)[O-])c(OC)cc1Cl | 144 to 145
O=Cc1cc(Cl)ccc1[N+](=O)[O-] | 75 to 77
O=CC(O)C(O)CO (centres undefined) | 164
NC(Cc1ccc(F)c(F)c1)C(=O)O (racemic) | 237 to 240
CCOC(=O)OC(=O)C1=CC(C)(C)N(O)C1(C)C | 64 to 65
CC(=O)Cc1ccccc1 | -15
CCCCCCCCCCCCOC(=O)c1ccccc1C(=O)OCCCCCCCCCCCC | 21 to 23
Cc1cccc2c1sc1c(C)cccc12 | 147 to 153
CCOC(=O)C(CCc1ccccc1)NC(C)C(=O)N1CCCC1C(=O)O (centres undefined) | 144
CCOc1ccccc1NC(C)=O | 79
COc1ccc(C(=O)c2ccc(-c3ccccc3)cc2)cc1OC | 107 to 109
CNC(C)C1C(O)CC2(C)C3CCC4C(C)(C)C(NC)CCC45CC35CCC12C (centres undefined) | 207
O=Cc1c(Cl)ccc(Cl)c1Cl | 86 to 89
CC1=CC(c2ccccc2)c2ccccc21 (centres undefined) | 61
CCCCCCCCCCCC1CCCC1 | -10
COc1ccc(C=CC(=O)c2ccc(OC)cc2OC)cc1 | 97
CC(=O)OCC(=O)C1CCC2C3CC=C4CC(O)CCC4(C)C3CCC12C (centres undefined) | 184
COc1nc(NC(C)C)nc(NC(C)C)n1 | 91.5
CCOc1ccc(C=CC(=O)O)cc1 | 195 to 197
OCC1OC(n2cnc3c(NCc4ccco4)ncnc32)C(O)C1O (centres undefined) | 152 to 154
Nc1cccc2nonc12 | 109 to 111
OC(C#CC#CC(O)(c1ccccc1)c1ccccc1Cl)(c1ccccc1)c1ccccc1Cl (single isomer, unassigned; (+)) | 130 to 133
COc1cc(CCl)ccc1OCc1ccccc1 | 73
O=CC(C=O)c1ccncc1 | 320

SMILES | melting point [°C]
O=C1OC2(c3ccccc31)c1ccc(O)c(Br)c1Oc1c2ccc(O)c1Br | 285
O=[N+]([O-])c1ccc(-c2nnc(S)s2)o1 | 175 to 177
CC(=O)c1csc2ccc(Br)cc12 | 87 to 90
Cc1ccc(C(=O)O)c(N)c1 | 160 to 161
CCCCCCCCCCCC(=O)OC1OC(CO)C(OC2OC(CO)C(O)C(O)C2O)C(O)C1O (centres undefined) | 193 to 197
NNC(=O)c1cnn(-c2ccc(Cl)cc2)c1C(F)(F)F | 179 to 181
OCC#Cc1cc(C(F)(F)F)cc(C(F)(F)F)c1 | 58 to 60
O=C(OCC1OC(Oc2ccccc2CO)C(O)C(O)C1O)c1ccccc1 (centres undefined) | 180
CC1C=CCCC1 (centres undefined) | -124
Oc1ccccc1S | 20
O=C(Cl)c1ccsc1 | 50 to 54
CCCCC(=O)c1ccc(F)cc1 | 27
NN=C(C(=O)c1ccccc1)c1ccccc1 | 147 to 151
OCc1ccc(I)c(O)c1 | 148
CCOC(=O)c1cn[nH]c1NC(=O)Nc1cccc(Cl)c1 | 257 to 259
COc1ccc(-c2nnc(CCl)o2)cc1 | 91 to 95
OCC1NC(CO)C(O)C1O (centres undefined) | 102
Cc1c(C)c([N+](=O)[O-])c(C)c(C)c1[N+](=O)[O-] | 212
Cc1cc(Br)cc(C)c1I | 42 to 44
Cc1nccc2ccccc12 | 10
CC(=O)OC1=c2ccc([N+](=O)[O-])cc2=NC1=c1ccc(=C2N=c3cc([N+](=O)[O-])ccc3=C2OC(C)=O)cc1 | 280
N#Cc1ccc(Br)cc1F | 71
COC(=O)C(Cc1ccccc1)NC(=O)C(N)CC(=O)O (centres undefined) | 246
O=C(OCc1ccccc1)c1cccnc1 | 22

SMILES | melting point [°C]
Nc1ccc2ccc3ccccc3c2c1 | 143
O=C1c2ccccc2C(=O)N1c1n[nH]c2ncccc12 | 254
O=C(CBr)c1ccc(OC(F)(F)F)cc1 | 55 to 58
O=C(O)c1c(O)cccc1F | 160
O=C(Nc1ccc(F)cc1F)c1cccnc1Oc1cccc(C(F)(F)F)c1 | 160
CC(C)CN(CC(C)C)CC(C)C | -21.8
Cc1cc(Cl)cc(Cl)c1Cl | 45.5
COc1cccc(C)c1C | 29
CC12CC(=O)C3C(CCC4=CC(=O)CCC43C)C1CCC2=O (centres undefined) | 222
CNc1ccc(C(=O)OC)cc1 | 95
NC1(P(=O)(O)O)CCCC1 | 274 to 276
CN(C)c1ccc(C=Cc2ccc3ccccc3n2)cc1 | 184
Cc1ccc(O)cc1N | 158
OC(c1ccccc1)(c1ccccc1)[C@H]1CCCN1 | 77 to 81
Nc1cc(S(=O)(=O)O)ccc1Cl | 300
CCOOCC | -70
CC(C)(C#N)OC1OC(CO)C(O)C(O)C1O (centres undefined) | 145
Clc1cc(-c2ccccn2)nc(-c2ccccn2)c1 | 150
C=C(C)CC1(CC)C(=O)NC(=S)NC1=O | 160
COc1ccc(/N=N/c2c(N)nn3c(-c4ccccc4)cc(=O)[nH]c23)cc1 | 278
CC(=O)N1CCN(c2ccc(O)cc2)CC1 | 183
Cc1cccc(OCC(O)CNC(C)C)c1 (centres undefined) | 76
CC=Cc1cc(OC)c(OC)cc1OC | 62.5
O=c1[nH]c2ccccc2[nH]c1=O | 300

SMILES | melting point [°C]
O=C1NC(CCO)C(=O)NC1CCO (centres undefined) | 188 to 192
CCOC(=O)c1[nH]c(C)c(C(=O)OCC)c1C | 137
CCOC(=O)C(C)OC(=O)c1cc(Oc2ccc(C(F)(F)F)cc2Cl)ccc1[N+](=O)[O-] (centres undefined) | 45
CCCC(=O)N(C)C | -40
CCOC(=O)/C(=N\Nc1ccc([N+](=O)[O-])cc1)C(=O)C(F)(F)F | 184
CN=C=O | -45
OC(c1ccc(-c2ccc(C(O)(C(F)(F)F)C(F)(F)F)cc2)cc1)(C(F)(F)F)C(F)(F)F | 125 to 126
C=CCC(/C=C1\C(=O)C2(C)CCC1C2(C)C)(/C=C1\C(=O)C2(C)CCC1C2(C)C)C(=O)OCC (centres undefined) | 148
Cc1nc2ccccc2n1CC(=O)O | 260 to 262
N#Cc1c2ccccc2c(C#N)c2ccccc12 | 337
N#CC1(c2ccc(Cl)cc2Cl)CC1 | 81 to 85
COc1ccc(-c2onc(C(=O)c3ccc([N+](=O)[O-])cc3)c2S(=O)(=O)c2ccccc2)cc1 | 128
O=C(O)c1cc(Oc2ccc(C(F)(F)F)cc2Cl)ccc1[N+](=O)[O-] | 155
O=Cc1cccc(Br)n1 | 81
O=C1OCc2cc(Br)ccc21 | 162 to 166
NNC(=S)NCc1ccccc1 | 130
N#Cc1cc(C#N)c(C#N)cc1C#N | 267 to 270
CC(C)CCCC(C)C1CCC2C3CC(=O)C4CC(O)CCC4(C)C3CCC12C (centres undefined) | 140 to 142
Nc1c(F)cc(Br)cc1Br | 63
O=C(c1cccs1)c1noc(-c2ccc(Br)cc2)c1S(=O)(=O)c1ccccc1 | 130
O=S1(=O)CC=C(Cl)C1 | 90 to 92
NC(=S)c1ccc(F)cc1 | 150
O=C(Nc1ccccn1)C(F)(F)C(F)(F)C(F)(F)C(F)(F)C(F)(F)C(F)(F)C(F)(F)C(F)(F)F | 66
O=[N+]([O-])c1ccccc1C(Br)C(Br)c1ccccn1 (centres undefined) | 182

SMILES | melting point [°C]
CCCCNC(=O)NCC(=O)O | 140
CNC(=O)C(=NOC)c1ccccc1Oc1ccccc1 | 88
O=Cc1ccc(OP(=S)(Oc2ccc(C=O)cc2)Oc2ccc(C=O)cc2)cc1 | 115 to 119
CC(C)(C)c1nc(N)nc(O)n1 | 275
COc1ccc(NC(=O)CS)cc1 | 118 to 119
Brc1cccc(Oc2ccccc2)c1 | < 20
CC1(C)CC(=O)C2=C(C1)Nc1ccc3ccccc3c1C2c1ccc(F)cc1 (centres undefined) | 204
O=C(C=Cc1ccccc1)C=Cc1ccccc1 | 111
COC(=O)C1(O)c2ccccc2-c2ccc(Cl)cc21 (centres undefined) | 155
O=C(O)Cc1cc(O)ccc1O | 153
CC1(O)Cc2cccc(Cl)c21 (centres undefined) | 94
O=C(C=Cc1ccc(-c2ccc(Cl)cc2)o1)c1ccccc1 | 128 to 129
COc1cc([C@@H](O)[C@H](CO)Oc2c(OC)cccc2OC)cc(OC)c1O | 217
CC(SCc1ccccc1)C(=O)O (centres undefined) | 79 to 81
O=C(O)C=Cc1ccsc1 | 155 to 156
CCC1=CN(S(=O)(=O)c2ccc(C)cc2)C[C@@H]1CCc1cccc(C(=O)OC)c1 | 67.5
O=C(O)C(C(F)(F)F)C(F)(F)F | 52
CCOC(=O)CC(C(C)=O)C(=O)OCC (centres undefined) | -8
O=C1c2ccccc2C(=O)C1c1ccc2ccccc2n1 | 241
O=C(NCOC(=O)c1ccc(O)cc1)c1ccccc1 | 165 to 166
O=C(O)c1cnn(-c2ccccc2)c1C(F)(F)F | 139 to 141
O=C(O)C=CC(=O)C=CC(=O)O | 300
Cc1cc(Cl)cc([N+](=O)[O-])c1N | 126 to 132
